According to patent US12172995B2, “Substituted indole and indazole compounds” (BRISTOL-MYERS SQUIBB COMPANY, priority 2018, dated 2024):

Assays:
Format in all cases: cell-based
human TLR8 = molecular target: T1, human TLR8 (Homo sapiens, UniProt Q9NR97); experiment: TLR8 inhibition reporter assay (HEK-Blue SEAP); conditions: HEK-Blue cells overexpressing human TLR8, stimulated with R848 15.9 μM, 22 hour incubation
T1 construct: host or cells: HEK-Blue cells
T1 sequence (Q9NR97 27-1041): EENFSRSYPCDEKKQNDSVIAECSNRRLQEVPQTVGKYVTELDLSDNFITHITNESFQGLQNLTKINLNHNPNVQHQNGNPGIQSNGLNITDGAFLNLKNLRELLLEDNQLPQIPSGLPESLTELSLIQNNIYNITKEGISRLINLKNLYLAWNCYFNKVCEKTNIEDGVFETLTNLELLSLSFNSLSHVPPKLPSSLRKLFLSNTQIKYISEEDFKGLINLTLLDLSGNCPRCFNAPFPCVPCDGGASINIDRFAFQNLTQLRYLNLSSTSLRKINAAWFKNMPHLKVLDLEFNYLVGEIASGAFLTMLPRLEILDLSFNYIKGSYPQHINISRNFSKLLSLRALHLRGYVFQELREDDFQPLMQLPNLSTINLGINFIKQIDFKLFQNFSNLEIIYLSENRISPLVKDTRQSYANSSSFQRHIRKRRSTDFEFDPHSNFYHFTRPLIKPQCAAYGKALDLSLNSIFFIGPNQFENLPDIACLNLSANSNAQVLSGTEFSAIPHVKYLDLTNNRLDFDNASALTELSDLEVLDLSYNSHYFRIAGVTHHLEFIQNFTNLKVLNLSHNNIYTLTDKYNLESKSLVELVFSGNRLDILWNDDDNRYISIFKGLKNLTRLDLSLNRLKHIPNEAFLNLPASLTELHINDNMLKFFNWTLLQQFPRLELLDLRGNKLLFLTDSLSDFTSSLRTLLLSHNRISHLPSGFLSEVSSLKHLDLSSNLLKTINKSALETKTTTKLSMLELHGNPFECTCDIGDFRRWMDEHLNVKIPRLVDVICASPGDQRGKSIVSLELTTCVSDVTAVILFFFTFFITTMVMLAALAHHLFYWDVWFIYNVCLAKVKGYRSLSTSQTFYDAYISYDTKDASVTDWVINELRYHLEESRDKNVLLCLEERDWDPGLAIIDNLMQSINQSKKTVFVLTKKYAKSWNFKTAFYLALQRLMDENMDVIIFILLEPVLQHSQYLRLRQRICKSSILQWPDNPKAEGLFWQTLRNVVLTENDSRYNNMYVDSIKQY
How it was run: (§1)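 HEK-Blue cells overexpressing the receptor, with an NF-κB/AP-1-driven SEAP reporter, were pre-treated with compound (0.05 nM to 50 μM) for 30 min at room temperature. Stimulation used gardiquimod 7.5 μM (TLR7), R848 15.9 μM (TLR8) or ODN2006 5 nM (TLR9), followed by 22 h at 37 °C.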

human TLR9 = molecular target: T2, human TLR9 (Homo sapiens, UniProt Q9NR96); experiment: TLR9 inhibition reporter assay (HEK-Blue SEAP); conditions: HEK-Blue cells overexpressing human TLR9, stimulated with ODN2006 5 nM, 22 hour incubation
T2 construct: host or cells: HEK-Blue cells
T2 sequence (Q9NR96 26-1032): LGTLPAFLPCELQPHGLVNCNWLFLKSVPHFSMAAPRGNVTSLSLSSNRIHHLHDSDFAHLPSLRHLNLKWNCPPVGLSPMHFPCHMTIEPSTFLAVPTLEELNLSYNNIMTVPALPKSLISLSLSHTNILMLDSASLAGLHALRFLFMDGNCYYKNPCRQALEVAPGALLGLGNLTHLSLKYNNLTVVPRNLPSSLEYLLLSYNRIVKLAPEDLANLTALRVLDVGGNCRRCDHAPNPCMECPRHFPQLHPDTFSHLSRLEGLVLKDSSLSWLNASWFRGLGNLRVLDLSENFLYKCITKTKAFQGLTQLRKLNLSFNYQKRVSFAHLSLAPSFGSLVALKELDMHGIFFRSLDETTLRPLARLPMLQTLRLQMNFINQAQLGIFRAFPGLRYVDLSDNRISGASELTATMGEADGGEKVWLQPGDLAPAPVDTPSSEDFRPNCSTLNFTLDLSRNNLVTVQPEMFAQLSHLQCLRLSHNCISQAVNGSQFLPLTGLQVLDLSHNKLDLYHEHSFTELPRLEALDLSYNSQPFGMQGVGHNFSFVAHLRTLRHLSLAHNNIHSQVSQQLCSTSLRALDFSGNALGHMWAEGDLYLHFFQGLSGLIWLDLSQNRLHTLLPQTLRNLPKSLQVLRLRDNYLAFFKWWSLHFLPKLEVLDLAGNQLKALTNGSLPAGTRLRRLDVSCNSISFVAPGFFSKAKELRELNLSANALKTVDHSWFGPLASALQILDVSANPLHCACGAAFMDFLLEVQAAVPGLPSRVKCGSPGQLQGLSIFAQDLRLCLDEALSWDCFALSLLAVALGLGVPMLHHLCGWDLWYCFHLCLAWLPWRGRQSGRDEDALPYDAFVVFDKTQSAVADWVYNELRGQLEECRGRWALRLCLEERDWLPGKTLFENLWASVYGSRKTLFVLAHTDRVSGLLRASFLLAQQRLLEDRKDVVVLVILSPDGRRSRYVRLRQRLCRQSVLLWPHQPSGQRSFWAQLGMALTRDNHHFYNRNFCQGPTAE
How it was run: as §1

human TLR7 = molecular target: T3, human TLR7 (Homo sapiens, UniProt Q9NYK1); experiment: TLR7 inhibition reporter assay (HEK-Blue SEAP); conditions: HEK-Blue cells overexpressing human TLR7, stimulated with gardiquimod 7.5 μM, 22 hour incubation
T3 construct: host or cells: HEK-Blue cells
T3 sequence (Q9NYK1 27-1049): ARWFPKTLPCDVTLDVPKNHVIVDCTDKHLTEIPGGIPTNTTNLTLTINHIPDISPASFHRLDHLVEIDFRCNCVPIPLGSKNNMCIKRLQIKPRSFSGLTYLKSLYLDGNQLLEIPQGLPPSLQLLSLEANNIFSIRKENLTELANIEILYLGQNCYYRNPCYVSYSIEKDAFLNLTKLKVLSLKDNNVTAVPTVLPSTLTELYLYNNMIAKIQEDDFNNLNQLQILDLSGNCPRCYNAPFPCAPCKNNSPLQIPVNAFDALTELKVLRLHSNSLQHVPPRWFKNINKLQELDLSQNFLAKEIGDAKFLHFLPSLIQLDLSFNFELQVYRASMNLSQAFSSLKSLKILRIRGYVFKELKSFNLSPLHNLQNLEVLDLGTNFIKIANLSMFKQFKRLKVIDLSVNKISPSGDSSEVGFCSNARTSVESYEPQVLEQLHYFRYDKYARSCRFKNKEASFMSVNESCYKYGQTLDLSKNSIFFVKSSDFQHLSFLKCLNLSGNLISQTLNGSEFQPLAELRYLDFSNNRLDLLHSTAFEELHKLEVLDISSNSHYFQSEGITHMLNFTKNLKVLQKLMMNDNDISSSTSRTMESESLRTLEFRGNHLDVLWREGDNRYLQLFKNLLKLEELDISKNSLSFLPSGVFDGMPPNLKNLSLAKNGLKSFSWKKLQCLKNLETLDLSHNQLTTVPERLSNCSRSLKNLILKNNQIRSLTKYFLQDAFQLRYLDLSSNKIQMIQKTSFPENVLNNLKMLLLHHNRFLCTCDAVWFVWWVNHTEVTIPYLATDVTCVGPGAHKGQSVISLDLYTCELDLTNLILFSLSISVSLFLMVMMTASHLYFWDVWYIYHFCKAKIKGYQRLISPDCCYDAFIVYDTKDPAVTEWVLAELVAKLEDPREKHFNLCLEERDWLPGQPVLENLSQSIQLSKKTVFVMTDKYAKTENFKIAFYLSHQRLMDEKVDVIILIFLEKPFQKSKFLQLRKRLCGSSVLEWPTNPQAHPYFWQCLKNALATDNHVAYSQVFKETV
How it was run: as §1

## Cc1cc(-c2cc3[nH]nc(C4CCC(N5CCCC5)CC4)c3cc2C(C)C)cn2ncnc12 (single isomer, unassigned) [Example 130, 6-(5-isopropyl-3-(4-(pyrrolidin-1-yl)cyclohexyl)-1H-indazol-6-yl)-8-methyl-[1,2,4]triazolo[1,5-a]pyridine]
Human TLR8
  IC50: 0.1 nM
Human TLR9
  IC50: 4200 nM
Human TLR7
  IC50: 0.2 nM

## Cc1cc(-c2cc3[nH]nc(C4CCC(N5CCCC5)CC4)c3cc2C(C)C)cn2ncnc12 (single isomer, unassigned) [Example 131, 6-(5-isopropyl-3-(4-(pyrrolidin-1-yl)cyclohexyl)-1H-indazol-6-yl)-8-methyl-[1,2,4]triazolo[1,5-a]pyridine]
Human TLR8
  IC50: 0.3 nM
Human TLR9
  IC50: 4570 nM
Human TLR7
  IC50: 2 nM

## Cc1cc(-c2cc3[nH]nc(C4CCC(N5CC(F)(F)C5)CC4)c3cc2C(C)C)cn2ncnc12 (single isomer, unassigned) [Example 134, 6-(3-(4-(3,3-difluoroazetidin-1-yl)cyclohexyl)-5-isopropyl-1H-indazol-6-yl)-8-methyl-[1,2,4]triazolo[1,5-a]pyridine]
Human TLR8
  IC50: 0.2 nM
Human TLR9
  IC50: 15900 nM
Human TLR7
  IC50: 2.5 nM

## Cc1cc(-c2cc3[nH]nc(C4CCC(N5CC(F)(F)C5)CC4)c3cc2C(C)C)cn2ncnc12 (single isomer, unassigned) [Example 135, 6-(3-(4-(3,3-difluoroazetidin-1-yl)cyclohexyl)-5-isopropyl-1H-indazol-6-yl)-8-methyl-[1,2,4]triazolo[1,5-a]pyridine]
Human TLR8
  IC50: 9.4 nM
Human TLR9
  IC50: 18900 nM
Human TLR7
  IC50: 15.5 nM

## Cc1cc(-c2cc3[nH]nc(C4CCC(N5CC(C)(C)C5)CC4)c3cc2C(C)C)cn2ncnc12 (single isomer, unassigned) [Example 136, 6-(3-(4-(3,3-dimethylazetidin-1-yl)cyclohexyl)-5-isopropyl-1H-indazol-6-yl)-8-methyl-[1,2,4]triazolo[1,5-a]pyridine]
Human TLR8
  IC50: 3.9 nM
Human TLR9
  IC50: 4900 nM
Human TLR7
  IC50: 26.3 nM

## Cc1cc(-c2cc3[nH]nc(C4CCC(N5CC(C)(C)C5)CC4)c3cc2C(C)C)cn2ncnc12 (single isomer, unassigned) [Example 137, 6-(3-(4-(3,3-dimethylazetidin-1-yl)cyclohexyl)-5-isopropyl-1H-indazol-6-yl)-8-methyl-[1,2,4]triazolo[1,5-a]pyridine]
Human TLR8
  IC50: 0.6 nM
Human TLR9
  IC50: 8680 nM
Human TLR7
  IC50: 5.5 nM

## Cc1cc(-c2cc3[nH]nc(C4CCC(N5CCC5)CC4)c3cc2C(C)C)cn2ncnc12 (single isomer, unassigned) [Example 138, 6-(3-(4-(azetidin-1-yl)cyclohexyl)-5-isopropyl-1H-indazol-6-yl)-8-methyl-[1,2,4]triazolo[1,5-a]pyridine]
Human TLR8
  IC50: 0.5 nM
Human TLR9
  IC50: 5870 nM
Human TLR7
  IC50: 1 nM

## Cc1cc(-c2cc3[nH]nc(C4CCC(N5CCC5)CC4)c3cc2C(C)C)cn2ncnc12 (single isomer, unassigned) [Example 139, 6-(3-(4-(azetidin-1-yl)cyclohexyl)-5-isopropyl-1H-indazol-6-yl)-8-methyl-[1,2,4]triazolo[1,5-a]pyridine]
Human TLR8
  IC50: 0.1 nM
Human TLR9
  IC50: 6250 nM
Human TLR7
  IC50: 1.2 nM

## COc1cc(-c2cc3[nH]nc(C4CCC(N(C)C)CC4)c3cc2C(C)C)cn2ncnc12 (single isomer, unassigned) [Example 140, 4-(5-isopropyl-6-(8-methoxy-[1,2,4]triazolo[1,5-a]pyridin-6-yl)-1H-indazol-3-yl)-N,N-dimethylcyclohexan-1-amine]
Human TLR8
  IC50: 0.1 nM
Human TLR9
  IC50: 3430 nM
Human TLR7
  IC50: 0.2 nM

## COc1cc(-c2cc3[nH]nc(C4CCC(N(C)C)CC4)c3cc2C(C)C)cn2ncnc12 (single isomer, unassigned) [Example 141, 4-(5-isopropyl-6-(8-methoxy-[1,2,4]triazolo[1,5-a]pyridin-6-yl)-1H-indazol-3-yl)-N,N-dimethylcyclohexan-1-amine]
Human TLR8
  IC50: 2.9 nM
Human TLR9
  IC50: 3720 nM
Human TLR7
  IC50: 5.3 nM

## Cc1cc(-c2cc3[nH]nc(C4CCC(N5CC6(C5)CS(=O)(=O)C6)CC4)c3cc2C(C)C)cn2ncnc12 (single isomer, unassigned) [Example 142, 6-(4-(5-isopropyl-6-(8-methyl-[1,2,4]triazolo[1,5-a]pyridin-6-yl)-1H-indazol-3-yl)cyclohexyl)-2-thia-6-azaspiro[3.3]heptane 2,2-dioxide]
Human TLR8
  IC50: 0.2 nM
Human TLR9
  IC50: 9710 nM
Human TLR7
  IC50: 1.3 nM

## Cc1cc(-c2cc3[nH]nc(C4CCC(N5CC6(C5)CS(=O)(=O)C6)CC4)c3cc2C(C)C)cn2ncnc12 (single isomer, unassigned) [Example 143, 6-(4-(5-isopropyl-6-(8-methyl-[1,2,4]triazolo[1,5-a]pyridin-6-yl)-1H-indazol-3-yl)cyclohexyl)-2-thia-6-azaspiro[3.3]heptane 2,2-dioxide]
Human TLR8
  IC50: 1.5 nM
Human TLR9
  IC50: 6710 nM
Human TLR7
  IC50: 3.5 nM
